Data from US9155309B2, “Virus inactivating sheet” (priority 2009, dated 2015).
Read-outs that look alike come from different tables or passages of the source.

Tested on: influenza virus (influenza A/Kitakyusyu/159/93(H3N2))
Type: cell-based
Settings: 10 minutes at room temperature, PBS control 128

[Cu+].[Cu+].[S-2] [compound 26, COPPER(I) SULFIDE]
HA TITER (material concentration 0.5 percent by mass in PBS): 64 | HA TITER (material concentration 5 percent by mass in PBS): 16
